Laboratory results taken from the supplement of paper PMC10307832.

How the values were obtained:
Test in all cases: relative viability (nuclei count vs DMSO), 5 days (fraction); higher = more cells survive
[1] = compound: CCC1=CN=CN=C1N2CCN(CC2)CC3=NC4=C(N3)C=C(C=C4)C(F)(F)F
Summary of the method: (§1)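 Five library-drug doses spaced by √10 were pinned onto vehicle-anchored 1536-well plates of lung cancer cell lines that had been kept overnight at 37 °C. Cells went 5 days without medium change, then were fixed, permeabilised and Hoechst-stained together, imaged at 4× and counted by MetaXpress. Viability is the ratio of treated-well to vehicle-well nuclei, taken as a median over plates. Plates required control CV below 25% and at least one doubling.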

[2] = compound: CCn1c(-c2nonc2N)nc2cnc(Oc3cccc(NC(=O)c4ccc(OCCN5CCOCC5)cc4)c3)cc21
Summary of the method: as §1

Mirin = compound: N=C1NC(=O)/C(=C/c2ccc(O)cc2)S1 [Mirin]
Summary of the method: as §1

[3] = compound: CCn1c(-c2nonc2N)nc2cnc(Oc3cccc(NC(=O)c4ccc(OCCN5CCOCC5)cc4)c3)cc21 + Cc1nc(Nc2ncc(C(=O)Nc3c(C)cccc3Cl)s2)cc(N2CCN(CCO)CC2)n1 [Dasatinib] (partner 0.075 µM)
Summary of the method: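 Cells from lung cancer lines were seeded into 1536-well plates and, one day later, dosed by pin tool. Treatments were either a single drug or a fixed dose of an anchor drug with five library-drug doses (not always all listed) in √10 steps. After 5 days, nuclei were stained in a one-step fixation (final 0.05% Triton X-100, 1% formaldehyde, 1 ug/ml Hoechst) and counted on 4× images, and relative viability is the treated-to-vehicle nuclei ratio, as the median of duplicate plates.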

| Cell Line | relative viability ([1]; 0.04 µM) | relative viability ([1]; 0.1265 µM) | relative viability ([1]; 0.4 µM) | relative viability ([1]; 1.265 µM) | relative viability ([1]; 4 µM) | relative viability ([2]; 0.04 µM) | relative viability ([2]; 0.1265 µM) | relative viability ([2]; 0.4 µM) | relative viability ([2]; 1.265 µM) | relative viability ([2]; 4 µM) | relative viability (Mirin; 0.25 µM) | relative viability (Mirin; 0.7906 µM) | relative viability (Mirin; 2.5 µM) | relative viability (Mirin; 7.906 µM) | relative viability (Mirin; 25 µM) | relative viability ([3]; first compound 0.04 µM) | relative viability ([3]; first compound 0.1265 µM) | relative viability ([3]; first compound 0.4 µM) | relative viability ([3]; first compound 1.265 µM) | relative viability ([3]; first compound 4 µM) |
| --- | --- | --- | --- | --- | --- | --- | --- | --- | --- | --- | --- | --- | --- | --- | --- | --- | --- | --- | --- | --- |
| NCI-H358 | 1.06 | 0.866 | 0.858 | 0.806 | 0.915 | 0.934 | 0.919 | 0.577 | 0.829 | 0.619 | 0.888 | 0.901 | 0.998 | 0.9 | 0.714 | 0.162 | 0.195 | 0.169 | 0.219 | 0.141 |
| NCI-H441 | 1.09 | 0.926 | 0.896 | 0.877 | 1.09 | 1.26 | 1.12 | 0.541 | 0.807 | 0.727 | 1.11 | 1.01 | 1.1 | 0.886 | 0.993 | 0.635 | 0.683 |  | 0.685 | 0.549 |
| NCI-H460 | 0.998 | 0.956 | 0.971 | 0.926 | 0.972 | 1.06 | 0.945 | 0.852 | 0.337 | 0.36 | 1.04 | 0.954 | 1.02 | 0.992 | 1.02 | 0.467 | 0.288 | 0.154 | 0.136 | 0.112 |
| NCI-H520 | 0.953 | 0.902 | 0.962 | 0.746 | 1.02 | 1.24 | 1.05 | 0.978 | 0.567 | 0.511 | 1 | 0.882 | 1.02 | 0.808 | 0.709 | 0.166 | 0.174 | 0.166 | 0.163 | 0.139 |
| NCI-H522 | 0.833 | 1.03 | 0.931 | 0.799 | 0.919 | 1.13 | 0.815 | 0.74 | 0.576 | 0.698 | 0.979 | 0.9 | 1.06 | 0.753 | 0.655 | 0.735 | 0.797 | 0.656 | 0.614 | 0.667 |
| NCI-H596 | 1.01 | 0.935 | 0.882 | 0.736 | 1.08 | 1.01 | 0.869 | 0.799 | 0.865 | 0.83 | 0.996 | 1 | 1.02 | 1.02 | 0.973 | 0.682 | 0.611 | 0.495 | 0.469 | 0.546 |
| NCI-H647 | 0.891 | 0.915 | 0.828 | 0.711 | 1.03 | 1.08 | 0.707 | 0.705 | 0.458 | 0.55 | 1.11 | 0.864 | 0.975 | 0.918 | 0.904 | 0.145 | 0.0946 | 0.0784 | 0.122 | 0.0956 |
| NCI-H650 | 0.776 | 0.958 | 0.994 | 0.918 | 0.958 | 1.1 | 0.761 | 0.391 | 0.359 | 0.417 | 1.03 | 0.737 | 0.929 |  | 1.13 | 0.4 | 0.317 | 0.216 | 0.248 | 0.276 |
| NCI-H661 | 0.996 | 0.973 | 0.955 | 0.967 | 0.971 | 0.998 | 0.969 | 0.957 | 0.82 | 0.611 | 0.988 | 1.09 | 1.03 | 0.974 | 1.01 | 0.672 | 0.519 | 0.593 | 0.422 | 0.426 |
| NCI-H727 | 1.05 | 0.909 | 0.981 | 0.603 | 0.91 | 1.21 | 1.15 | 0.767 | 0.986 | 0.947 | 1.14 | 0.918 | 1.06 | 1.27 | 1.15 | 0.507 | 0.621 | 0.405 | 0.467 | 0.521 |
| NCI-H838 | 0.997 | 0.941 | 0.942 | 0.828 | 0.957 | 0.854 | 0.517 | 0.409 | 0.406 | 0.319 | 0.999 | 0.93 | 1.02 | 1.02 | 0.959 | 0.314 | 0.192 | 0.199 | 0.208 | 0.183 |
| NCI-H1355 | 1.01 | 0.935 | 0.918 | 0.931 | 1.04 | 1.04 | 1 | 0.776 | 0.632 | 0.487 | 0.997 | 0.982 | 0.949 | 0.942 | 1.08 | 0.755 | 0.712 | 0.235 | 0.312 | 0.275 |
| NCI-H1395 | 0.837 | 0.86 | 0.943 | 0.769 | 0.892 | 1.13 | 0.837 | 0.769 | 0.469 | 0.563 | 0.948 |  | 0.964 | 0.925 | 0.841 | 0.398 | 0.37 | 0.342 | 0.317 | 0.345 |
